# Laboratory results reported in ChEMBL document CHEMBL1201862, “PubChem BioAssay data set” (2004).
# Calls of active or inactive are those of the source.
# Tests used:
# [1] = A Cell Based Secondary Assay To Explore Cytotoxicity of Compounds that Sensitize Mycobacterium Tuberculosis to Beta-Lactam Antibiotics.; format: functional
# [2] = molecular target: Cytochrome P450 2D6 (Homo sapiens, UniProt P10635);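 also: CYP2D6 member of a cytochrome P450 panel assay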
# [3] = molecular target: T1, Adenosylmethionine-8-amino-7-oxononanoate aminotransferase (Mycobacterium tuberculosis, UniProt P9WQ81); test: Mycobacterium tuberculosis BioA enzyme inhibitor Measured in Biochemical System Using Plate Reader - 2163-02_Inhibitor_Dose_CherryPick_Activity.; format: functional, Mycobacterium tuberculosis UT205
# T1 sequence (P9WQ81 whole entry): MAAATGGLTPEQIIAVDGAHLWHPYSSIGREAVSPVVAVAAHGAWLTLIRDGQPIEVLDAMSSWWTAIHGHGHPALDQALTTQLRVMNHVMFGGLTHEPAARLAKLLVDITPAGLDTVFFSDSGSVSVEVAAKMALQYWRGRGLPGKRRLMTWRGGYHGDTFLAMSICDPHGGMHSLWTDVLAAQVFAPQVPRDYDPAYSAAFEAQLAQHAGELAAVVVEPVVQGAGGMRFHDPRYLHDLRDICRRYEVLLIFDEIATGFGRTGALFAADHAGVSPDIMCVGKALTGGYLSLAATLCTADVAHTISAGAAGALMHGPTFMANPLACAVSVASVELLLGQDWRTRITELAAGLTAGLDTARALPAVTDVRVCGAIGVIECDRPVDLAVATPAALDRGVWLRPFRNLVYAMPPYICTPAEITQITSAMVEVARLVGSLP
# [4] = Trypanosoma cruzi growth suppression in host cells – NIH3T3 host cells, beta-gal luminescence, confirmation (AID 2044); format: functional, cell-based;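 also: intracellular parasites grown in NIH/3T3 mouse fibroblasts as host cells; luminescent beta-galactosidase reporter signal from transgenic T. cruzi replicating inside host cells; inhibitors lower the luminescence signal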
# [5] = NIH3T3 cell viability loss – ATP luminescence, mouse fibroblasts, counter-screen, dose response (AID 2010); format: functional, cell-based;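 also: cells exposed to compound for about 90 hours before reading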
# [6] = cells
# [7] = test system: INS1; test: INS-1E survival protection against cytokine death – cell-based, luminescence, retest, dose response (AID 449756); format: functional; settings: Rattus norvegicus;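 also: cell death triggered by IL-1 beta plus TNF-alpha plus IFN-gamma mixture; protective hits raise ATP signal compared with cytokine alone wells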
# [8] = viability loss in THP-1 monocytes – THP-1 cells, cytotoxicity control for Vif-APOBEC3G degradation inhibitor project, dose response (AID 1117359); format: functional; settings: THP-1
# [9] = molecular target: Beta-galactosidase (Escherichia coli, UniProt Q8VNN2); test: PubChem AID 485352; format: functional
# [10] = molecular target: T2, Type-1 angiotensin II receptor (Homo sapiens, UniProt P30556); test: antagonism of angiotensin II type 1 receptor – cell-based, uHTS hits, selectivity assay for APJ receptor antagonist project, dose response (AID 463214); format: functional;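 also: antagonist potency against angiotensin II stimulated AT1 response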
# T2 sequence (P30556 whole entry): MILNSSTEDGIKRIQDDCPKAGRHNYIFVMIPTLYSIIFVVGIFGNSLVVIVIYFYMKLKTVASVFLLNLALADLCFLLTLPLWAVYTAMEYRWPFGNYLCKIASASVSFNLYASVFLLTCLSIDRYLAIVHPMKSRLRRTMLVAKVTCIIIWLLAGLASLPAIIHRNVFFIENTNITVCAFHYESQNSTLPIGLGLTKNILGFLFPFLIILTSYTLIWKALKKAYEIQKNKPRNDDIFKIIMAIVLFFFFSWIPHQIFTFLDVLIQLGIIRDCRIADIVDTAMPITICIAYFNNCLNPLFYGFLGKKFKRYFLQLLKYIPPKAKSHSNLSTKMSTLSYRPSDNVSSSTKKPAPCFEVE
# [11] = test system: Streptococcus sp. 'group A'; test: Streptococcus pyogenes SK(-)GAS viability under kanamycin – luminescence, BacTiterGlo, confirmation, counter-screen for streptokinase expression inhibitor project, dose response (AID 1900); format: functional, organism-based
# [12] = molecular target: T3, Streptokinase A (Streptococcus pyogenes serotype M1, UniProt P10520); test: viability-normalized secreted streptokinase activity reduction – plasminogen activation absorbance, OD405, dose response (AID 1914); format: functional, Streptococcus pyogenes M1 GAS;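 also: secreted streptokinase activity via plasminogen activation per viability signal from cell pellet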
# T3 sequence (P10520 whole entry): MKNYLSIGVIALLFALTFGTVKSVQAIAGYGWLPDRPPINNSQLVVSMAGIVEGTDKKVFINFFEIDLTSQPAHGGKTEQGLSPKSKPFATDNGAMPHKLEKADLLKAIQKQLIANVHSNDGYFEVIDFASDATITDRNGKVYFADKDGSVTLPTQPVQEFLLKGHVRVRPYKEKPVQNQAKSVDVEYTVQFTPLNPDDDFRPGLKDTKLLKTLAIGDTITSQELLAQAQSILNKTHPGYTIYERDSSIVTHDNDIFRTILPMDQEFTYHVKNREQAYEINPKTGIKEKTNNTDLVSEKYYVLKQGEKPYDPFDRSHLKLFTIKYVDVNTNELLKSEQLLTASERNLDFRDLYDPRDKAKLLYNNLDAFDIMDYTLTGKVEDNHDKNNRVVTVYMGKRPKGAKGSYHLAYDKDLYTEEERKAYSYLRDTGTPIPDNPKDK
# [13] = test system: Streptococcus; test: GAS UMAA2166 growth inhibition – luminescence, BacTiterGlo, counter-screen for streptokinase expression inhibitor project, dose response (AID 1915); format: functional, organism-based;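 also: potency for reduction of bacterial viability or growth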
# [14] = molecular target: T4, Caspase-3 (Homo sapiens, UniProt P42574); format: functional
# T4 sequence (P42574 whole entry): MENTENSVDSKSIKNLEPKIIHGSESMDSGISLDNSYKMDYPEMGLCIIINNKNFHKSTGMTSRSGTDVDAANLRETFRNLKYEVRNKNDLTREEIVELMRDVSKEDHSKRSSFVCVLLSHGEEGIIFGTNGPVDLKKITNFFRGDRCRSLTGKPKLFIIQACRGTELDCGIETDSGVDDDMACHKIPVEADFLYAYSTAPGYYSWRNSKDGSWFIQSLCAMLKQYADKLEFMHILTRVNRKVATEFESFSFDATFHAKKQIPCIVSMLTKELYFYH
# [15] = molecular target: T5, Sentrin-specific protease 7 (Homo sapiens, UniProt Q9BQF6); format: functional;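 also: Luminescence-based dose-response confirmation of ultra-high-throughput screening hits, measuring inhibition of SENP7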
# T5 sequence (Q9BQF6 whole entry): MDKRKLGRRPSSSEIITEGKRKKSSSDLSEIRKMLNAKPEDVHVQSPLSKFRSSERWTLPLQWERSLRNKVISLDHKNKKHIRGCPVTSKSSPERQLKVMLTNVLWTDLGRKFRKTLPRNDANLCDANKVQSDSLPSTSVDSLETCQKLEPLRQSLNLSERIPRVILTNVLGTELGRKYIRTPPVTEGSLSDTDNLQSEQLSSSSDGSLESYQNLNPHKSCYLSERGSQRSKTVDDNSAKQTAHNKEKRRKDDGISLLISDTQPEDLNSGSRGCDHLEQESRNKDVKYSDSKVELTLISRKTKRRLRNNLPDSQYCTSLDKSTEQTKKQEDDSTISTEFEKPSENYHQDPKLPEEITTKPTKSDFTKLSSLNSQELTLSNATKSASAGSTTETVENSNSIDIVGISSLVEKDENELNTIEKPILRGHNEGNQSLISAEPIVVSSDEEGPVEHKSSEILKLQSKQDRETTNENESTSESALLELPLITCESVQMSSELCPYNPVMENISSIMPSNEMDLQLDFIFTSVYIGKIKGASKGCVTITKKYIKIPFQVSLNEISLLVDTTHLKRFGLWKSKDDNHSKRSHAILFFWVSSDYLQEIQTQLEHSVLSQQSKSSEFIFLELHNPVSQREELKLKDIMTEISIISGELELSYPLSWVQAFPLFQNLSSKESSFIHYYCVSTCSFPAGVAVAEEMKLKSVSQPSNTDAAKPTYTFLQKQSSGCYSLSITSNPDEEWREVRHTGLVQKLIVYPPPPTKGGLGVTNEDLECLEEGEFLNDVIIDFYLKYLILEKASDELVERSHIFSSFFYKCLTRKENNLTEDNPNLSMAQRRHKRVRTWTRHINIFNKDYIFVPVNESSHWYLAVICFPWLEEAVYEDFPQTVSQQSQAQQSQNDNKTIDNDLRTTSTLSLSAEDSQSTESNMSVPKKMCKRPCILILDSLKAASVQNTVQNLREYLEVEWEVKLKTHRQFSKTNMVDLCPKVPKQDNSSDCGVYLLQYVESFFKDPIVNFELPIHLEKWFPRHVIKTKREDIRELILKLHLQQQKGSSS
# [16] = molecular target: T6, Sentrin-specific protease 6 (Homo sapiens, UniProt Q9GZR1); format: functional
# T6 sequence (Q9GZR1 whole entry): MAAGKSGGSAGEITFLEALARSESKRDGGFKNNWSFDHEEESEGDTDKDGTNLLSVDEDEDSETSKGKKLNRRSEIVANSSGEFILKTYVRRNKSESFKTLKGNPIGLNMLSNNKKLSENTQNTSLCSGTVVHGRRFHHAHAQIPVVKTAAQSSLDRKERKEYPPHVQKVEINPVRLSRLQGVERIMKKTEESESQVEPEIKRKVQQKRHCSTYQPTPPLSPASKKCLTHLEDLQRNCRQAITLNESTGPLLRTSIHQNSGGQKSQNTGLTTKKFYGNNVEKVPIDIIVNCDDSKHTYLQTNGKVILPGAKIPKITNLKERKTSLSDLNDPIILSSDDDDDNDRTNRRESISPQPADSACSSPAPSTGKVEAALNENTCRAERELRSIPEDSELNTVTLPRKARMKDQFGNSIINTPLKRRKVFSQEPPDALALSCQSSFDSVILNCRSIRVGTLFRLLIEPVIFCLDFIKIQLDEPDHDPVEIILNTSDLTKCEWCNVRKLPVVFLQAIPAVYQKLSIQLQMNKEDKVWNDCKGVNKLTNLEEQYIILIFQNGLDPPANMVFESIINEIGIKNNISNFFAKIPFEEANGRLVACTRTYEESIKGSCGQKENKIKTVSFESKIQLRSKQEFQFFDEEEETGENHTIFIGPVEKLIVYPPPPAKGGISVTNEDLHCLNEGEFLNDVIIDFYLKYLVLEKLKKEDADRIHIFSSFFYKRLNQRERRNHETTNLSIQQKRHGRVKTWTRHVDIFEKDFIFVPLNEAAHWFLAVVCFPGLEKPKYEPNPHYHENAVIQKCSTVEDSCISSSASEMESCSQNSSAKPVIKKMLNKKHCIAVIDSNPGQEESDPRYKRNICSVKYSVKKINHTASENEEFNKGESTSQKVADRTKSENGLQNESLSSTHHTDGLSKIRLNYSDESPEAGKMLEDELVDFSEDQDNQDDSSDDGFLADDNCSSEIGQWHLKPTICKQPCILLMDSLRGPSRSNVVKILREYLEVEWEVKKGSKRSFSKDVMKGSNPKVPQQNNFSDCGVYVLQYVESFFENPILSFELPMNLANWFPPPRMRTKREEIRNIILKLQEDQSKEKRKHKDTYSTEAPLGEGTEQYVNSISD
# [17] = molecular target: T7, Sentrin-specific protease 8 (Homo sapiens, UniProt Q96LD8); format: functional;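 also: luminescence read-out of SENP8 inhibition, dose-response confirmation following an ultra-high-throughput screen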
# T7 sequence (Q96LD8 whole entry): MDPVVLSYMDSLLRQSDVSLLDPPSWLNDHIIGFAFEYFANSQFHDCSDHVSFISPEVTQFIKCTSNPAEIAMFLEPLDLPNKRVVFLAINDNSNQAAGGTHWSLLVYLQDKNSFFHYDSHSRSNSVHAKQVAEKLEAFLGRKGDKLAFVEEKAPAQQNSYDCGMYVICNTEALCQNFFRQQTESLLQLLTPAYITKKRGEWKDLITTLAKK
# [18] = molecular target: T4, Caspase-3; test: SAR Analysis of small molecule inhibitors of Sentrin-specific proteases (SENPs) using a Caspase-3 Selectivity assay. [Related pubchem assays (depositor defined):AID2540, AID2599, AID434973, AID489001]; format: functional
# [19] = molecular target: T6, Sentrin-specific protease 6; test: SAR Analysis of small molecule inhibitors of Sentrin-specific protease 6 (SENP6) using a Luminescent assay. [Related pubchem assays (depositor defined):AID2582, AID2599]; format: functional
# [20] = molecular target: T5, Sentrin-specific protease 7; test: inhibition of human SENP7 cleavage activity – biochemical, luminescence, SAR follow-up (AID 504497); format: functional
# Beta-galactosidase, sequence (Q8VNN2 whole entry): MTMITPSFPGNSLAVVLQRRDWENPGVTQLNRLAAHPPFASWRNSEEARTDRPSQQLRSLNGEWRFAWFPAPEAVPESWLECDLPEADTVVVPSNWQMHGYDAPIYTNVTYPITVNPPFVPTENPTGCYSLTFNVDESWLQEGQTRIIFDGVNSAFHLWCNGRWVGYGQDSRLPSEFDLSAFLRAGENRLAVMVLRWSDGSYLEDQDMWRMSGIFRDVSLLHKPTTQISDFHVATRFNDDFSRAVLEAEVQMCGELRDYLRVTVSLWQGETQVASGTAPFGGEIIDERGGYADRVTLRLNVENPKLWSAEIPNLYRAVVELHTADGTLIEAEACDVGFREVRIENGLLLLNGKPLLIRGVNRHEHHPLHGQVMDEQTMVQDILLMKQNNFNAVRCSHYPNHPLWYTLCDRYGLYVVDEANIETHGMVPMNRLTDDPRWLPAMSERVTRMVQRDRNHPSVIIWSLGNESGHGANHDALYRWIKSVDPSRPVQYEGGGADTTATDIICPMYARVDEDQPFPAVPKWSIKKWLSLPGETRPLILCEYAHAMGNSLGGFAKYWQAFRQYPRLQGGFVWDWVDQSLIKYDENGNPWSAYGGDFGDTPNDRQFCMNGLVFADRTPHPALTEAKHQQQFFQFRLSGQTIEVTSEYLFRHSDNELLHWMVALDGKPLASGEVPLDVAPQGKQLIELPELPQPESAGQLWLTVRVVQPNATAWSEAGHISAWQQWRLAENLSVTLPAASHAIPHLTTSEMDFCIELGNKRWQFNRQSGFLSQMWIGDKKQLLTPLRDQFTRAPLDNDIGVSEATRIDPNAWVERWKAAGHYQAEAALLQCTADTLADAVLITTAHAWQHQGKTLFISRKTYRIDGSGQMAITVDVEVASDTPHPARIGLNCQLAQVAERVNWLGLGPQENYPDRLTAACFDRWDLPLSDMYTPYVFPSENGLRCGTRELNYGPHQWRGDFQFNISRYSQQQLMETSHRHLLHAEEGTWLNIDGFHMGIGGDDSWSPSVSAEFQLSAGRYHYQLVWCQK
# Cytochrome P450 2D6, sequence (P10635 whole entry): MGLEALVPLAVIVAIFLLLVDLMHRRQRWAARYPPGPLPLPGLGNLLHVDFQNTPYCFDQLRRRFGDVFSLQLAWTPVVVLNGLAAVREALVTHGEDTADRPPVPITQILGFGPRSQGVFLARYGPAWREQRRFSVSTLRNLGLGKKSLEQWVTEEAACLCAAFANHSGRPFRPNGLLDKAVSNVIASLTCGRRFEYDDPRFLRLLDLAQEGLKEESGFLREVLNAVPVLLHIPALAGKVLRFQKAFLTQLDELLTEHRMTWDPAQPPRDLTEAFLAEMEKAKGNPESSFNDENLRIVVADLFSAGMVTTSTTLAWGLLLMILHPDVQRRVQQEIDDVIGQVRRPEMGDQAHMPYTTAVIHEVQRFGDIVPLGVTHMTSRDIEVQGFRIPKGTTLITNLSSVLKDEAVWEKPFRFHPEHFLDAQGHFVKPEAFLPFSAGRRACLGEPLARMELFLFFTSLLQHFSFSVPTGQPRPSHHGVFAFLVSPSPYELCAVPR
smiles,measurement,setting,value
CCCn1nnnc1NC(=O)COc1ccc(Cl)cc1C,CC50,[1],34.5 µM (active)
same,AC50,[2],25.1 µM (inconclusive)
COC(=O)c1c(C(=O)OC)c(-c2ccc(F)cc2)n2c1C[S+]([O-])C2 (stereo not given),AC50,[3],10.3 µM (active)
NC(=O)c1ccc(Oc2cccc3cccnc23)c([N+](=O)[O-])c1,AC50,[3],2.3 µM (active)
COc1cc(OC)c(OC)cc1CNCCc1ccc(F)cc1,EC50,[4],< 0.1 µM (active)
same,EC50,[5],> 60 µM (not active)
same,EC50,[6],0.055 µM (active)
CCOC(=O)c1ccc(-[n+]2c(-c3ccccc3)cc(-c3ccccc3)cc2-c2ccccc2)cc1.[O-][Cl+3]([O-])([O-])[O-],EC50,[4],< 0.1 µM (active)
same,EC50,[5],> 60 µM (not active)
same,AC50,[7],2.02 µM (active)
same,EC50,[6],0.047 µM (active)
CCOC(=O)c1ccc(N2C(=O)c3[nH]nc(C)c3C2c2ccc(OC)cc2OC)cc1 (stereo not given),CC50,[8],> 40 µM (active)
Nc1ccc(N=Nc2ccccc2O)c(N)c1,CC50,[1],> 40 µM (active)
CN(C)CCN(Cc1ccco1)C(=O)c1cc2c(Cl)nc3ccccc3c2s1,EC50,[9],> 40 µM (inactive)
same,EC50,[4],< 0.1 µM (active)
same,IC50,[10],33.8 µM (not active)
same,EC50,[5],9.5 µM (active)
same,EC50,[6],0.115 µM (active)
CN(C)CCNc1ccc(-c2nn(C)c(=O)c3ccccc23)cc1[N+](=O)[O-],EC50,[4],< 0.1 µM (active)
same,EC50,[5],> 60 µM (not active)
same,EC50,[6],0.062 µM (active)
Cc1cccc(C(=O)Nc2scc(-c3ccc(Br)cc3)c2C(=O)O)c1,EC50,[11],2.33 µM (active)
same,EC50,[12],> 150 µM (not active)
same,EC50,[13],8.14 µM (active)
same,IC50,[14],5.21 µM (active)
same,IC50,[15],> 100 µM (inactive)
same,IC50,[16],4.28 µM (active)
same,IC50,[17],3.72 µM (active)
same,IC50,[18],4.89 µM (active)
same,IC50,[19],3.42 µM (active)
same,IC50,[20],6.38 µM (active)
C[C@H](CO)N1C[C@H](C)[C@@H](CN(C)Cc2ccc3c(c2)OCO3)Oc2ccc(NC(=O)Cn3cnnn3)cc2CC1=O,AC50,[3],13 µM (active)
COC(=O)C[C@@H]1CC[C@@H]2[C@H](COC[C@@H](O)CN2C(=O)Nc2cccc(F)c2)O1,AC50,[3],10 µM (active)
O=C(c1cccc(F)c1)N1CC[C@@H]2[C@H]1c1cc(-c3cccc(F)c3)ccc1N[C@@H]2CO,AC50,[3],5.94 µM (active)
O=C(N/N=C1\CCC\C1=C(/O)C(F)(F)F)c1cccc(O)c1,CC50,[1],32.2 µM (active)
